According to PubChem BioAssay (NCI):
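Growth conditions: 96-well plates. Treatment: test compound, 48 hours, 5 concentrations. Analysis: linear interpolation between bracketing concentrations; unreached endpoints set to highest concentration. Abbreviation: GI50, concentration required for 50% inhibition of growth. TGI: concentration producing complete growth inhibition.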

Columns and labels:
Assay in all cases: NCI tumour cell line growth inhibition, 48 h
DLD-1 colon = system: DLD-1 colon
DMS 114 small cell lung = system: DMS 114 small cell lung
DMS 273 small cell lung = system: DMS 273 small cell lung
HOP-18 NSCLC = system: HOP-18 NSCLC
KM20L2 colon = system: KM20L2 colon
M19-MEL melanoma = system: M19-MEL melanoma
SNB-78 CNS = system: SNB-78 CNS
RXF-631 renal = system: RXF-631 renal
XF 498 CNS = system: XF 498 CNS
P388 leukemia = system: P388 leukemia
P388/ADR leukemia = system: P388/ADR leukemia
SN12K1 renal = system: SN12K1 renal

`COc1ccc(N2C(=O)C3c4[nH]c5ccccc5c4C4CCCCC4C3C2=O)cc1` (stereo not drawn) was tested, and the TGI (DLD-1 colon) was over 100 µM, the TGI (DMS 114 small cell lung) was over 100 µM and the TGI (DMS 273 small cell lung) was 23.9 µM. For the same molecule, the TGI (HOP-18 NSCLC) was 67.7 µM, the TGI (KM20L2 colon) was over 100 µM and the TGI (M19-MEL melanoma) was over 100 µM. It also gave a TGI (SNB-78 CNS) of 12.1 µM.

Molecule `O=C1NCCS(=O)(=O)N2CCC[C@@H]12` has a TGI (DLD-1 colon) of over 100 µM, a TGI (DMS 114 small cell lung) of over 100 µM and a TGI (HOP-18 NSCLC) of over 100 µM. The TGI (KM20L2 colon) was over 100 µM, the TGI (M19-MEL melanoma) was over 100 µM and the TGI (RXF-631 renal) was over 100 µM. It also gave a TGI (SNB-78 CNS) of over 100 µM.

`O=C1c2ccccc2C(=O)c2[nH]c(Cc3ccc(F)cc3)nc21` was tested, and the TGI (DLD-1 colon) was 8.21 µM, the TGI (DMS 273 small cell lung) was 35.5 µM and the TGI (KM20L2 colon) was 34.4 µM. The TGI (M19-MEL melanoma) was 34.2 µM, the TGI (RXF-631 renal) was 44.8 µM and the TGI (XF 498 CNS) was 31.8 µM.

`CN(C)/N=N/c1nc[nH]c1C(N)=O` showed a TGI (DMS 114 small cell lung) of 96.8 µM, a TGI (DMS 273 small cell lung) of 88.3 µM and a TGI (HOP-18 NSCLC) of 39.2 µM. For the same molecule, the TGI (M19-MEL melanoma) was over 94.7 µM, the TGI (P388 leukemia) was over 98.3 µM and the TGI (P388/ADR leukemia) was over 96.5 µM. The TGI (SN12K1 renal) was 92.6 µM and the TGI (XF 498 CNS) was 84.5 µM.

Molecule `CCCC(=O)[O-].N.N.N.N.N.[Co+3].[O-][Cl+3]([O-])([O-])[O-]` has a GI50 (DLD-1 colon) of over 100 µM, a TGI (DLD-1 colon) of over 100 µM and a GI50 (KM20L2 colon) of over 100 µM. For the same molecule, the TGI (KM20L2 colon) was over 100 µM, the GI50 (SNB-78 CNS) was over 100 µM and the TGI (SNB-78 CNS) was over 100 µM.

`CC1(C)N=C(c2ccccn2)C(c2ccccn2)=NC1(C)C` showed a TGI (DLD-1 colon) of over 100 µM, a TGI (DMS 114 small cell lung) of over 100 µM and a TGI (DMS 273 small cell lung) of over 100 µM. It also gave a TGI (KM20L2 colon) of over 100 µM, a TGI (M19-MEL melanoma) of over 100 µM and a TGI (RXF-631 renal) of over 100 µM. It also gave a TGI (SNB-78 CNS) of over 100 µM and a TGI (XF 498 CNS) of over 100 µM.

Molecule `COc1ccc(Sc2ccccc2N)cc1` has a TGI (DLD-1 colon) of over 100 µM, a TGI (DMS 114 small cell lung) of over 100 µM and a TGI (DMS 273 small cell lung) of over 100 µM. The TGI (HOP-18 NSCLC) was over 100 µM, the TGI (KM20L2 colon) was over 100 µM and the TGI (M19-MEL melanoma) was over 100 µM. It also gave a TGI (SNB-78 CNS) of 97.3 µM and a TGI (XF 498 CNS) of 40 µM.

`C=C1C(=O)OC2CC3(C)OC3CC/C(C)=C/C(OC(C)=O)C12` (stereo not drawn) showed a TGI (DLD-1 colon) of 7.81 µM, a TGI (DMS 114 small cell lung) of 23 µM and a TGI (DMS 273 small cell lung) of 31.2 µM. The TGI (HOP-18 NSCLC) was 23.5 µM, the TGI (KM20L2 colon) was 20 µM and the TGI (M19-MEL melanoma) was 22.3 µM. For the same molecule, the TGI (SNB-78 CNS) was 35.1 µM and the TGI (XF 498 CNS) was 4.12 µM.

`CN1C/C(=C\C=C\c2ccccc2)C(=O)/C(=C/C=C/c2ccccc2)C1` was tested, and the TGI (DLD-1 colon) was over 100 µM, the TGI (DMS 114 small cell lung) was over 100 µM and the TGI (DMS 273 small cell lung) was over 100 µM. It also gave a TGI (KM20L2 colon) of over 100 µM, a TGI (M19-MEL melanoma) of over 100 µM and a TGI (RXF-631 renal) of over 100 µM. It also gave a TGI (SNB-78 CNS) of over 100 µM and a TGI (XF 498 CNS) of over 100 µM.

In the case of `NC(CSSCC(N)Cc1ccccc1)Cc1ccccc1` (stereo not drawn), the TGI (DLD-1 colon) was over 100 µM, the TGI (DMS 114 small cell lung) was over 100 µM and the TGI (KM20L2 colon) was over 100 µM. The TGI (M19-MEL melanoma) was over 100 µM, the TGI (SNB-78 CNS) was over 100 µM and the TGI (XF 498 CNS) was 57.2 µM.

For `O=c1oc2ccccc2c(O)c1C(C/C(CCN1CCCC1)=N\Nc1ccccc1)c1ccccc1` (stereo not drawn), the TGI (DLD-1 colon) was over 100 µM, the TGI (HOP-18 NSCLC) was over 100 µM and the TGI (KM20L2 colon) was over 100 µM. For the same molecule, the TGI (M19-MEL melanoma) was over 100 µM, the TGI (SNB-78 CNS) was over 100 µM and the TGI (XF 498 CNS) was over 100 µM.

`COC(=O)C(NC(=O)c1ccccc1)C(c1ccc(Cl)cc1)P(=O)(OC)OC` (stereo not drawn) showed a TGI (DLD-1 colon) of over 100 µM, a TGI (DMS 273 small cell lung) of over 100 µM and a TGI (KM20L2 colon) of over 100 µM. The TGI (M19-MEL melanoma) was over 100 µM, the TGI (SNB-78 CNS) was over 100 µM and the TGI (XF 498 CNS) was over 100 µM.

Work on `C/C=C(/C)C(=O)O[C@H]1[C@H](O)CC(c2ccc3c(c2O)C(O)=C2C(=O)C4(OC)C(O)=C(C(N)=O)C(=O)[C@H](CC(=O)c5ccccc5O)C4CC2[C@@]3(C)OC)O[C@@H]1C` (stereo partly drawn) yielded a TGI (DLD-1 colon) of 3.85 µM, a TGI (DMS 114 small cell lung) of 0.0292 µM and a TGI (HOP-18 NSCLC) of 3.07 µM. The TGI (KM20L2 colon) was 0.0623 µM and the TGI (M19-MEL melanoma) was 0.768 µM.

In the case of `COc1ccc2c(c1)OC[C@@H]1c3cc(O)c(OCc4ccccc4)cc3O[C@H]21`, the TGI (DLD-1 colon) was over 100 µM, the TGI (DMS 114 small cell lung) was 82.6 µM and the TGI (DMS 273 small cell lung) was over 100 µM. For the same molecule, the TGI (HOP-18 NSCLC) was over 100 µM, the TGI (KM20L2 colon) was 97.2 µM and the TGI (M19-MEL melanoma) was 95.5 µM. It also gave a TGI (RXF-631 renal) of over 100 µM, a TGI (SNB-78 CNS) of 92.3 µM and a TGI (XF 498 CNS) of 68.4 µM.
